Patent US7732563B2, “Cloning, sequencing and expression of a gene encoding an eukaryotic amino acid racemase, and diagnostic, therapeutic, and vaccination applications of parasite and viral mitogens” (priority 1999, dated 2010)

Tests used:
total spleen cells = experiment: In vitro proliferation assay of splenocytes (3H-thymidine uptake); assay type: cell-based, mouse; settings: for mitogenic activity of rTcPA45 with cultures supplemented with increasing amounts of substrate: 3 mM to 50 mM substrate, dose-dependent, competitive inhibition; for cell proliferation of lymphocytes with substrate alone: 50 mM alone; for mitogenic activity of rTcPA45 after pre-incubation with inhibitor of proline racemase: 50 μg/ml rTcPA45 pre-incubated with 1 mM inhibitor; for 3H-thymidine uptake: after 48 h, ConA 10 μg/ml, LPS 5 μg/ml, BALB/c splenocytes 5×10^4 cells/well
Method: Briefly, freshly recovered splenocytes from 8 week old male Balb/c mice seeded at a concentration of 5×10^4 cells/well were incubated for 24, 48 and 72 h in 5% FCS RPMI-1640 medium. A 16 h ^3H-thymidine pulse at 1 μCi/well was performed before harvesting. ^3H-Thymidine uptake was determined in a beta-plate liquid scintillation counter (LKB-Wallac). All points were done in triplicate and the corresponding standard deviation calculated. For comparison, ^3H-thymidine uptake after 48 h in the presence of ConA (10 μg/ml) and LPS (5 μg/ml) was 32000 c.p.m. and 3500 c.p.m., respectively. T-cell depletion was performed by incubating freshly recovered spleen cells for 30 min at 37° C. in the presence of anti-Thy 1.2 monoclonal antibody (Cedarlane) and rabbit complement (Cedarlane). In order to rule out a possible mitogenic effect due to LPS contamination in samples, proliferation assays were also performed on freshly recovered splenocytes from the LPS non-responder mouse strain C3H/Hej. Same levels of proliferation were verified. Balb/c mice were purchased from Charles River, France. C3H/Hej mice were maintained in our animal facilities.
In vitro proliferation is accomplished using freshly recovered splenocytes from BALB/c mice seeded at a density of 5×10^4 cells/well and incubated for 24, 48 and 72 h with increasing concentrations of total parasite supernatants or recombinant TcPa45 protein or other mitogen (0.07-200 μg/ml) with 0.5 μg/ml of the HPLC fractions, or with the conventionally used mitogens concanavalin A (10 μg/ml) and lipopolysaccharide (5 μg/ml) in 5% FCS in RPMI-1640 complete medium. T-cell depletion is accomplished by incubating freshly recovered spleen cells for 30 min. at 37° C. in the presence of monoclonal antibodies against Thy 1.2 and rabbit complement (Cedarlane, Le Perray en Yvelines, France). Analysis of proliferative activity of total splenocytes (5×10^4 cells/well) in the presence of 50 μg/ml enzymatically active rTcPA45 or other mitogen is also compared with the proliferation obtained using the same amounts of rTcPA45 protein or other mitogen lacking racemase activity (by heating for 10 min. at […] or by long term storage at 4° C.). Inhibition of proliferation is obtained by adding to the splenocyte cultures 50 μg/ml rTcPA45 or other mitogen pre-incubated for 10 min. at 37° C. with 1 mM inhibitor, either specific (pyrrole-2-carboxylic acid) or nonspecific (iodoacetamide or iodoacetate). Competitive assays of proliferative activity by 50 μg/ml rtcPA45 or other mitogen are done by adding increasing concentrations of specific substrates i.e., proline racemase substrates (L- or D-proline) for the mitogen rTcPA45 ranging from 3 mM to 50 mM. Controls include the incubation of splenocytes (5×10^4 cells/well) with substrate alone, i.e., 50 mM L- or D-proline in RPMI medium alone for prline racemase. Cultures are collected after a 16-hour pulse or 1 μCi/well ^3H-thymidine uptake was determined in a beta-plate liquid scintillation counter (LKB-Wallac, Orsay, France). All data points are obtained in triplicate and the corresponding standard deviation is calculated.
5×10^5 naive spleen cells/well (96 well plate) were stimulated in vitro with different doses of rTcPA45 (ranging in FIG. 4b from 0.8 to 200 μg/ml final) for 24, 48 and 72 h, at 37° C., 5% CO2. Cultures were pulsed with ^3H-Thymidine (1 μCi/well) for 16-18 h before harvesting. ^3H-thymidine incorporation was obtained after counting using a beta-plate. Results present arithmetic means of c.p.m. (counts/minute) from 6 wells/dose of rTcPA45 or wells containing medium alone (+/−SD of the means). (FIG. 4b)

rTcPA45 proline racemase = molecular target: T1, rTcPA45 proline racemase (Trypanosoma cruzi, UniProt Q4DA80); assay type: biochemical; settings: 80 mM L-proline; inhibitors 6 mM to 100 mM
T1 construct: made in house; host or cells: E. coli (pET28b(+))
Method: To investigate the genomic organization and transcription of the Tc45 gene, Southern and Northern blot analyses were done. FIG. 4 depicts the results of characterization of rTcPA45 activities. FIG. 4, part a, is an 8% SDS-PAGE gel of rTcPA45 (Coomasie blue staining). Part b depicts the proliferative activity of total splenocytes (5×10^4 cells/well) in the presence of increasing concentrations of rTcPA45 (μg/ml). […] Reaction conditions were: 0.2 M Na-acetate/25 mM β-mercaptoethanol buffer, pH6, rTcPA45 (3 μg/ml), 30 min incubation at 37° C. in 500 μl. The reaction was stopped by incubating for 10 min at 80° C. […] Reactions were carried out for 30 min at 37° C. and stopped for 5 min at 80° C. All reagents and inhibitors were purchased from Sigma. The shift in optical rotation was measured in a Polarimeter 241 MC (Perkin Elmer).
3 μg of rTcPA45 was diluted in 500 μl of buffer (0.2M NaOAc, […] β-mercaptoethanol, pH6.0) containing different concentrations of the substrate (10-80 mM or L- or D-proline). (See FIG. 4c.) The reaction was incubated for 30-60 minutes at 37° C. in a water bath, followed by heat inactivation of the enzyme for 10 minutes at 80° C. Each sample is diluted to 1.5 ml with water and the mixture submitted to measurement of optical rotation using a polarimeter, at 365 nm. A sample without enzyme is used as a control. For optimal pH determination, buffer systems with NaOAc, phosphate, and Tris were used with pH ranging from 4.0-8.2. Curve of temperature was performed between 27° C. to 47° C.
The percent of racemization of different concentrations of L-proline, D-proline, L-hydroxy-proline and D-hydroxy-proline substrates was calculated by incubating a 500-μl mixture of 3 μg TcPA45 and 10-80 mM substrate in 0.2 M sodium acetate and 25 mM β-mercaptoethanol, pH 6, for 30 min at 37° C. The reaction was stopped by incubation for 10 min at 80° C. Water (1 ml) was then added, and the optical rotation was measured in polarimeter 241 MC (Perkin Elmer, Montignyle Bretonneux, France) at a wavelength of 365 nm, in a cell with a path length of 10 cm. The percent inhibition of racemization of 80 mM L-proline was determined in the presence of different concentrations of several specific and nonspecific inhibitors ranging in concentration from 6 mM to 100 mM. The percent racemization of 80 mM L-proline as a function of pH was determined using 0.2 M sodium acetate, potassium phosphate and Tris-HCl buffers containing 25 mM β-mercaptoethanol; reactions were incubated for 30 min at 37° C. as described above. All reagents and inhibitors were purchased from Sigma.

T1 sequence (Q4DA80 30-423): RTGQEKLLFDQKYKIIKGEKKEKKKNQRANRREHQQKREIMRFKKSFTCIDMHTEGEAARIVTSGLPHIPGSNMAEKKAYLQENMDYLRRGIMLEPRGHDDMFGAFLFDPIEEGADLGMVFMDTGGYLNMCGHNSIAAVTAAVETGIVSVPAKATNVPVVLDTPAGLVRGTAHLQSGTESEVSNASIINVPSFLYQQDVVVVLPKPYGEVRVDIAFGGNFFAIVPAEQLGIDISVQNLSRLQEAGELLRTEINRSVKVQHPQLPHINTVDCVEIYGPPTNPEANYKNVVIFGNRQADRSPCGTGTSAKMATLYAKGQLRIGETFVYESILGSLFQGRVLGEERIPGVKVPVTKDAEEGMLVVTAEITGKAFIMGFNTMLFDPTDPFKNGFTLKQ

Question: What does the source list for O=C(O)[C@H]1CCCN1 [D-proline]?
Answer: mitogenic activity of rTcPA45 with cultures supplemented with increasing amounts of substrate (total spleen cells): affected considerably; cell proliferation of lymphocytes with substrate alone (total spleen cells): no cell proliferation

Question: Which “mitogenic activity of rTcPA45 after pre-incubation with inhibitor of proline racemase” value (total spleen cells) does the source give for NC(=O)CI [iodoacetamide, reference compound] here?
Answer: abolished

Question: And the “inhibition of rTcPA45 enzymatic (racemase) activity” value (“inhibition of rTcPA45 enzymatic” below) (rTcPA45 proline racemase)?
Answer: inhibited to different extents

Question: For O=C(O)c1ccc[nH]1 [pyrrole-2-carboxylic acid, reference compound], which “mitogenic activity of rTcPA45 after pre-incubation with inhibitor of proline racemase” value (total spleen cells) is on record?
Answer: abolished

Question: What about the “inhibition of rTcPA45 enzymatic” value (rTcPA45 proline racemase) of the same compound?
Answer: inhibited to different extents

Question: Which results are given for concanavalin A [ConA]?
Answer: 3H-thymidine uptake (total spleen cells): 32000 c.p.m.; 3H-thymidine uptake (total spleen cells; listed as concavalin A): 32,000 c.p.m.

Question: For O=C(O)CI [iodoacetate, reference compound], which “mitogenic activity of rTcPA45 after pre-incubation with inhibitor of proline racemase” value (total spleen cells) is on record?
Answer: abolished

Question: And the “inhibition of rTcPA45 enzymatic” value (rTcPA45 proline racemase)?
Answer: inhibited to different extents

Question: For O=C(O)[C@@H]1CCCN1 [L-proline], which “mitogenic activity of rTcPA45 with cultures supplemented with increasing amounts of substrate” value (total spleen cells) is on record?
Answer: affected considerably

Question: And the “cell proliferation of lymphocytes with substrate alone” value (total spleen cells)?
Answer: no cell proliferation

Question: How did the 3H-thymidine uptake (total spleen cells) turn out when lipopolysaccharide [LPS] was run?
Answer: 3500 c.p.m.

Question: What about the 3H-thymidine uptake (total spleen cells; listed as lipopolysaccharide) of the same compound?
Answer: 3,500 c.p.m.

Question: O=C(O)/C=C\C(=O)O [maleic acid, reference compound] was tested. Which “inhibition of rTcPA45 enzymatic” value (rTcPA45 proline racemase) did it give?
Answer: inhibited to different extents
